This note sets out measurements from patent publication US20250145665A1, “MACROCYCLIC PEPTIDES USEFUL AS MODULATORS OF TNF ALPHA” (Bristol-Myers Squibb Company, priority 2023, published 2025).

Starred links: 1 amine or outer side, 2 acyl side, 3 side chain; linkers in the order of their positions; H or OH if unused. Positions of bridges follow the written chain, without caps; N, C: chain ends. Non-standard residues stand in square brackets, D forms with d. Residues, ends and D or L forms follow the SMILES beside them. *: point of attachment. Bip(4'-NHCO-C6H4-3-CH2COOH) = N[C@@H](Cc1ccc(-c2ccc(NC(=O)c3cccc(CC(=O)O)c3)cc2)cc1)C(=O)O; Bip(4'-NHCO-C6H4-4-CH2COOH) = N[C@@H](Cc1ccc(-c2ccc(NC(=O)c3ccc(CC(=O)O)cc3)cc2)cc1)C(=O)O; dArg(ω-(2S)-2,3-diOHpropyl) = N=C(NCCC[C@@H](N)C(=O)O)NC[C@H](O)CO; Bip(4'-NH) = O=C([C@H](Cc1ccc(-c2ccc(N[*:3])cc2)cc1)N[*:1])[*:2]; dArg(ω-(3-HO-benzyl)) = N=C(NCCC[C@@H](N)C(=O)O)NCc1cccc(O)c1; Indazole3carbonyl(1-CH2COOH) = O=C(O)Cn1nc(C(=O)*)c2ccccc21; Bip(4'-COOH) = N[C@@H](Cc1ccc(-c2ccc(C(=O)O)cc2)cc1)C(=O)O; Indole3carbonyl(1-CH2COOH) = O=C(O)Cn1cc(C(=O)*)c2ccccc21; X36 = N=C(NCCC[C@@H](N[*:1])C(=O)[*:2])NCc1cccc(C(=O)O)c1; Ala(imidazol-2-yl) = N[C@@H](Cc1ncc[nH]1)C(=O)O; Ala(morpholin-4-yl) = N[C@@H](CN1CCOCC1)C(=O)O; Benzoyl(3-OCH2COOH) = O=C(O)COc1cccc(C(=O)*)c1; Phe(3-CONH2) = NC(=O)c1cccc(C[C@H](N)C(=O)O)c1; Bip = N[C@@H](Cc1ccc(-c2ccccc2)cc1)C(=O)O; 2Pal = N[C@@H](Cc1ccccn1)C(=O)O; Cha = N[C@@H](CC1CCCCC1)C(=O)O; Sar = CNCC(=O)O

For one assay, the target named is TNFα (Homo sapiens, UniProt P01375). Nature of the assay: TNF-Induced HEK-Blue Assay.
Chain of TNFα (P01375 77-233 limits assumed): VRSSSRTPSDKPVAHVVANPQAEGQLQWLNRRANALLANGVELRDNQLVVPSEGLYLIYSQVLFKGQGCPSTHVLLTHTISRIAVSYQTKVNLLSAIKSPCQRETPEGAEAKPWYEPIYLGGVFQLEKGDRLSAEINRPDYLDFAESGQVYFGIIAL
Details: not given
The format is cell-based.
Take `CC(C)C[C@@H]1NC(=O)[C@H](Cc2ccc(O)cc2)NC(=O)[C@H](C(C)C)NC(=O)[C@@H]2CCCN2C(=O)[C@H](C(C)C)NC(=O)[C@@H](CCCNC(=N)NC[C@H](O)CO)NC(=O)[C@H](CC(=O)O)NC(=O)[C@@H]2CCCN2C(=O)CN(C)C(=O)[C@H](Cc2ccc(-c3ccc(NC(=O)c4nn(CC(=O)O)c5ccccc45)cc3)cc2)NC(=O)[C@H](Cc2ccc(-c3ccc(C(=O)O)cc3)cc2)NC(=O)[C@H](CC2CCCCC2)NC(=O)CSC[C@@H](C(=O)NCC(N)=O)NC1=O` [Example 545] ({CH2CO}-[Cha][Bip(4'-COOH)][Bip(4'-NH)](Indazole3carbonyl(1-CH2COOH))[Sar]PD[dArg(ω-(2S)-2,3-diOHpropyl)]VPVYLCG-NH2; thioether N-13): the IC50 was 0.05 to 0.2 µM.
On the same count and under the same terms, then `CC(C)C[C@@H]1NC(=O)[C@H](Cc2cccc(C(N)=O)c2)NC(=O)[C@H](C(C)C)NC(=O)[C@@H]2CCCN2C(=O)[C@H](C(C)C)NC(=O)[C@@H](CCCNC(=N)NC[C@H](O)CO)NC(=O)[C@H](CC(=O)O)NC(=O)[C@H](Cc2ccc(O)cc2)NC(=O)CN(C)C(=O)[C@H](Cc2ccc(-c3ccc(NC(=O)c4nn(CC(=O)O)c5ccccc45)cc3)cc2)NC(=O)[C@H](Cc2ccc(-c3ccccc3)cc2)NC(=O)[C@H](CN2CCOCC2)NC(=O)CSC[C@@H](C(=O)NCC(N)=O)NC1=O` [Example 546] ({CH2CO}-[Ala(morpholin-4-yl)][Bip][Bip(4'-NH)](Indazole3carbonyl(1-CH2COOH))[Sar]YD[dArg(ω-(2S)-2,3-diOHpropyl)]VPV[Phe(3-CONH2)]LCG-NH2; thioether N-13), with under 0.05 µM; and `CC(C)C[C@@H]1NC(=O)[C@H](Cc2cccc(C(N)=O)c2)NC(=O)[C@H](C(C)C)NC(=O)[C@@H]2CCCN2C(=O)[C@H](C(C)C)NC(=O)[C@@H](CCCNC(=N)NC[C@H](O)CO)NC(=O)[C@H](CC(=O)O)NC(=O)[C@H](Cc2ccc(O)cc2)NC(=O)CN(C)C(=O)[C@H](Cc2ccc(-c3ccc(NC(=O)c4cn(CC(=O)O)c5ccccc45)cc3)cc2)NC(=O)[C@H](Cc2ccc(-c3ccccc3)cc2)NC(=O)[C@H](CN2CCOCC2)NC(=O)CSC[C@@H](C(=O)NCC(N)=O)NC1=O` [Example 547] ({CH2CO}-[Ala(morpholin-4-yl)][Bip][Bip(4'-NH)](Indole3carbonyl(1-CH2COOH))[Sar]YD[dArg(ω-(2S)-2,3-diOHpropyl)]VPV[Phe(3-CONH2)]LCG-NH2; thioether N-13), with under 0.05 µM; and `CC(C)C[C@@H]1NC(=O)[C@H](Cc2ncc[nH]2)NC(=O)[C@H](C(C)C)NC(=O)[C@@H]2CCCN2C(=O)[C@H](C(C)C)NC(=O)[C@@H](CCCNC(=N)NCc2cccc(O)c2)NC(=O)[C@H](CC(=O)O)NC(=O)[C@H](Cc2ccccn2)NC(=O)CN(C)C(=O)[C@H](Cc2ccc(-c3ccc(NC(=O)c4nn(CC(=O)O)c5ccccc45)cc3)cc2)NC(=O)[C@H](Cc2ccc(-c3ccc(C(=O)O)cc3)cc2)NC(=O)[C@H](CC2CCCCC2)NC(=O)CSC[C@@H](C(=O)NCC(N)=O)NC1=O` [Example 551] ({CH2CO}-[Cha][Bip(4'-COOH)][Bip(4'-NH)](Indazole3carbonyl(1-CH2COOH))[Sar][2Pal]D[dArg(ω-(3-HO-benzyl))]VPV[Ala(imidazol-2-yl)]LCG-NH2; thioether N-13), with under 0.05 µM.
The same measure, in the same setting: then `CC(C)C[C@@H]1NC(=O)[C@H](Cc2ncc[nH]2)NC(=O)[C@H](C(C)C)NC(=O)[C@@H]2CCCN2C(=O)[C@H](C(C)C)NC(=O)[C@@H](CCCNC(=N)NCc2cccc(O)c2)NC(=O)[C@H](CC(=O)O)NC(=O)[C@H](Cc2ccccn2)NC(=O)CN(C)C(=O)[C@H](Cc2ccc(-c3ccc(NC(=O)c4cn(CC(=O)O)c5ccccc45)cc3)cc2)NC(=O)[C@H](Cc2ccc(-c3ccc(C(=O)O)cc3)cc2)NC(=O)[C@H](CC2CCCCC2)NC(=O)CSC[C@@H](C(=O)NCC(N)=O)NC1=O` [Example 552] ({CH2CO}-[Cha][Bip(4'-COOH)][Bip(4'-NH)](Indole3carbonyl(1-CH2COOH))[Sar][2Pal]D[dArg(ω-(3-HO-benzyl))]VPV[Ala(imidazol-2-yl)]LCG-NH2; thioether N-13), with 0.05 to 0.2 µM.

The same assay, now with this note: HEK-Blue-CD40L cells, NF-kB-driven secreted alkaline phosphatase reporter; TNFα 0.5 ng/ml; 18 h; read-out: TNF induced HEK-Blue assay IC50 value.
On to `CC(C)C[C@@H]1NC(=O)[C@H](CCCNC(=N)N)NC(=O)[C@H](C(C)C)NC(=O)[C@@H]2CCCN2C(=O)[C@H](C(C)C)NC(=O)[C@@H](CCCNC(=N)NCc2cccc(C(=O)O)c2)NC(=O)[C@H](CC(=O)O)NC(=O)[C@@H]2CCCN2C(=O)CN(C)C(=O)[C@H](Cc2ccc(-c3ccc(NC(=O)c4cccc(CC(=O)O)c4)cc3)cc2)NC(=O)[C@H](Cc2ccc(-c3ccccc3)cc2)NC(=O)[C@H](CN2CCOCC2)NC(=O)CSC[C@@H](C(=O)NCC(N)=O)NC1=O` [Example 543] ({CH2CO}-[Ala(morpholin-4-yl)][Bip][Bip(4'-NHCO-C6H4-3-CH2COOH)][Sar]PD[X36]VPVRLCG-NH2; thioether N-13), for which the half-inhibitory concentration (IC50) was 0.2 to 2 µM.
On to `CC(C)C[C@@H]1NC(=O)[C@H](CCCNC(=N)N)NC(=O)[C@H](C(C)C)NC(=O)[C@@H]2CCCN2C(=O)[C@H](C(C)C)NC(=O)[C@@H](CCCNC(=N)NCc2cccc(C(=O)O)c2)NC(=O)[C@H](CC(=O)O)NC(=O)[C@@H]2CCCN2C(=O)CN(C)C(=O)[C@H](Cc2ccc(-c3ccc(NC(=O)c4cccc(OCC(=O)O)c4)cc3)cc2)NC(=O)[C@H](Cc2ccc(-c3ccccc3)cc2)NC(=O)[C@H](CN2CCOCC2)NC(=O)CSC[C@@H](C(=O)NCC(N)=O)NC1=O` [Example 544] ({CH2CO}-[Ala(morpholin-4-yl)][Bip][Bip(4'-NH)](Benzoyl(3-OCH2COOH))[Sar]PD[X36]VPVRLCG-NH2; thioether N-13), for which the IC50 was in the range of 0.2 to 2 µM.
Same read-out and setting: the result for `CC(C)C[C@@H]1NC(=O)[C@H](Cc2cccc(C(N)=O)c2)NC(=O)[C@H](C(C)C)NC(=O)[C@@H]2CCCN2C(=O)[C@H](C(C)C)NC(=O)[C@@H](CCCNC(=N)NC[C@H](O)CO)NC(=O)[C@H](CC(=O)O)NC(=O)[C@H](Cc2ccc(O)cc2)NC(=O)CN(C)C(=O)[C@H](Cc2ccc(-c3ccc(NC(=O)c4ccc(CC(=O)O)cc4)cc3)cc2)NC(=O)[C@H](Cc2ccc(-c3ccccc3)cc2)NC(=O)[C@H](CN2CCOCC2)NC(=O)CSC[C@@H](C(=O)NCC(N)=O)NC1=O` [Example 548] ({CH2CO}-[Ala(morpholin-4-yl)][Bip][Bip(4'-NHCO-C6H4-4-CH2COOH)][Sar]YD[dArg(ω-(2S)-2,3-diOHpropyl)]VPV[Phe(3-CONH2)]LCG-NH2; thioether N-13) reads 0.05 to 0.2 µM; that for `CC(C)C[C@@H]1NC(=O)[C@H](Cc2cccc(C(N)=O)c2)NC(=O)[C@H](C(C)C)NC(=O)[C@@H]2CCCN2C(=O)[C@H](C(C)C)NC(=O)[C@@H](CCCNC(=N)NC[C@H](O)CO)NC(=O)[C@H](CC(=O)O)NC(=O)[C@H](Cc2ccc(O)cc2)NC(=O)CN(C)C(=O)[C@H](Cc2ccc(-c3ccc(NC(=O)c4cccc(CC(=O)O)c4)cc3)cc2)NC(=O)[C@H](Cc2ccc(-c3ccccc3)cc2)NC(=O)[C@H](CN2CCOCC2)NC(=O)CSC[C@@H](C(=O)NCC(N)=O)NC1=O` [Example 549] ({CH2CO}-[Ala(morpholin-4-yl)][Bip][Bip(4'-NHCO-C6H4-3-CH2COOH)][Sar]YD[dArg(ω-(2S)-2,3-diOHpropyl)]VPV[Phe(3-CONH2)]LCG-NH2; thioether N-13), 0.05 to 0.2 µM; that for `CC(C)C[C@@H]1NC(=O)[C@H](Cc2cccc(C(N)=O)c2)NC(=O)[C@H](C(C)C)NC(=O)[C@@H]2CCCN2C(=O)[C@H](C(C)C)NC(=O)[C@@H](CCCNC(=N)NC[C@H](O)CO)NC(=O)[C@H](CC(=O)O)NC(=O)[C@H](Cc2ccc(O)cc2)NC(=O)CN(C)C(=O)[C@H](Cc2ccc(-c3ccc(NC(=O)c4cccc(OCC(=O)O)c4)cc3)cc2)NC(=O)[C@H](Cc2ccc(-c3ccccc3)cc2)NC(=O)[C@H](CN2CCOCC2)NC(=O)CSC[C@@H](C(=O)NCC(N)=O)NC1=O` [Example 550] ({CH2CO}-[Ala(morpholin-4-yl)][Bip][Bip(4'-NH)](Benzoyl(3-OCH2COOH))[Sar]YD[dArg(ω-(2S)-2,3-diOHpropyl)]VPV[Phe(3-CONH2)]LCG-NH2; thioether N-13), 0.05 to 0.2 µM.
The same measure, in the same setting: the result for `CC(C)C[C@@H]1NC(=O)[C@H](Cc2ncc[nH]2)NC(=O)[C@H](C(C)C)NC(=O)[C@@H]2CCCN2C(=O)[C@H](C(C)C)NC(=O)[C@@H](CCCNC(=N)NCc2cccc(O)c2)NC(=O)[C@H](CC(=O)O)NC(=O)[C@H](Cc2ccccn2)NC(=O)CN(C)C(=O)[C@H](Cc2ccc(-c3ccc(NC(=O)c4cccc(CC(=O)O)c4)cc3)cc2)NC(=O)[C@H](Cc2ccc(-c3ccc(C(=O)O)cc3)cc2)NC(=O)[C@H](CC2CCCCC2)NC(=O)CSC[C@@H](C(=O)NCC(N)=O)NC1=O` [Example 553] ({CH2CO}-[Cha][Bip(4'-COOH)][Bip(4'-NHCO-C6H4-3-CH2COOH)][Sar][2Pal]D[dArg(ω-(3-HO-benzyl))]VPV[Ala(imidazol-2-yl)]LCG-NH2; thioether N-13) reads 0.05 to 0.2 µM; that for `CC(C)C[C@@H]1NC(=O)[C@H](Cc2ncc[nH]2)NC(=O)[C@H](C(C)C)NC(=O)[C@@H]2CCCN2C(=O)[C@H](C(C)C)NC(=O)[C@@H](CCCNC(=N)NCc2cccc(O)c2)NC(=O)[C@H](CC(=O)O)NC(=O)[C@H](Cc2ccccn2)NC(=O)CN(C)C(=O)[C@H](Cc2ccc(-c3ccc(NC(=O)c4ccc(CC(=O)O)cc4)cc3)cc2)NC(=O)[C@H](Cc2ccc(-c3ccc(C(=O)O)cc3)cc2)NC(=O)[C@H](CC2CCCCC2)NC(=O)CSC[C@@H](C(=O)NCC(N)=O)NC1=O` [Example 554] ({CH2CO}-[Cha][Bip(4'-COOH)][Bip(4'-NHCO-C6H4-4-CH2COOH)][Sar][2Pal]D[dArg(ω-(3-HO-benzyl))]VPV[Ala(imidazol-2-yl)]LCG-NH2; thioether N-13), under 0.05 µM; that for `CC(C)C[C@@H]1NC(=O)[C@H](Cc2ncc[nH]2)NC(=O)[C@H](C(C)C)NC(=O)[C@@H]2CCCN2C(=O)[C@H](C(C)C)NC(=O)[C@@H](CCCNC(=N)NCc2cccc(O)c2)NC(=O)[C@H](CC(=O)O)NC(=O)[C@H](Cc2ccccn2)NC(=O)CN(C)C(=O)[C@H](Cc2ccc(-c3ccc(NC(=O)c4cccc(OCC(=O)O)c4)cc3)cc2)NC(=O)[C@H](Cc2ccc(-c3ccc(C(=O)O)cc3)cc2)NC(=O)[C@H](CC2CCCCC2)NC(=O)CSC[C@@H](C(=O)NCC(N)=O)NC1=O` [Example 555] ({CH2CO}-[Cha][Bip(4'-COOH)][Bip(4'-NH)](Benzoyl(3-OCH2COOH))[Sar][2Pal]D[dArg(ω-(3-HO-benzyl))]VPV[Ala(imidazol-2-yl)]LCG-NH2; thioether N-13), under 0.05 µM.

The IC50 is the concentration that inhibits the measured activity by half.
